Common to all, as to assay type: cell-based
Assay [1] deals with BT20 (human breast carcinoma). In words: Cytotoxicity assay (CCK8), BT20. The settings on record: BT20 cells. As for the experimental part: (§1) Cells were cultured according to the supplier´s instructions (ATCC technologies, A-549 (CCL-185), BT-20 (HTB-19), SKOV3 (HTB-77), HCT116 (CCL-247), MRC5 (CCL-171). Cells were seeded in 96-well plates at a density of 2–2.5 × 10^3 cells per well and incubated overnight in 0.1 mL of media supplied with 10% Fetal Bovine Serum (Lonza) in 5% CO2 incubator at 37°C. On day 2, drugs were added and samples were incubated for 48 h. After treatment, 10 µL of cell counting kit-8 was added into each well for additional 2 h incubation at 37°C. The absorbance of each well was determined by an Automatic Elisa Reader System at 450 nm wavelength.

For assay [2], the system named is HCT-116 (human colorectal carcinoma). In words: Cytotoxicity assay (CCK8), HCT116. The following applies: HCT116 cells, 48 h. As for the experimental part: as §1
Assay [3] has as its system A549 (carcinomic human alveolar basal epithelial cells). In words: Cytotoxicity assay (CCK8), A549. The following applies: 48 h. As to the method:
as §1

The test system of assay [4] is MRC-5 (non-malignant lung fibroblasts). The experiment in a line: Cytotoxicity assay (CCK8), MRC5. The following applies: Homo sapiens, MRC5 non-cancerous cells, 48 h. As for the experimental part: as §1
The subject of assay [5] is SKOV3 (human ovarian carcinoma). In words: Cytotoxicity assay (CCK8), SKOV3. The following applies: SK-OV-3, SKOV3 cells, 48 h. As for the experimental part:
as §1

In general, IC50 refers to the concentration that inhibits the measured activity by half. For the compound `CCC(C#N)O/C=C/C(=O)OC` (stereo not shown) [Compound 1E], the IC50 in assay [1] (Homo sapiens, BT-20, 48 h) is 7.07 ± 1.28 µM; in assay [2], > 50 µM; in assay [3], > 50 µM; in assay [4], > 50 µM; in assay [5], 2.92 ± 0.28 µM.
Take `CCC(C#N)O/C=C\C(=O)OC` (stereo not shown) [Compound 1Z]: the IC50 in assay [1] (Homo sapiens, BT-20, 48 h) is > 50 µM; in assay [2], > 50 µM; in assay [3], > 50 µM; in assay [4] it was > 50 µM; in assay [5] it was > 50 µM.
For the compound `CCCCCCC(C#N)O/C=C/C(=O)OC` (stereo not shown) [Compound 2E], the IC50 in assay [1] (Homo sapiens, BT-20, 48 h) is 15.8 ± 2.9 µM; in assay [2] it was > 50 µM; in assay [3], > 50 µM; in assay [4], > 50 µM; in assay [5], 41.6 ± 2.46 µM.
On to `CCCCCCC(C#N)O/C=C\C(=O)OC` (stereo not shown) [Compound 2Z], for which the IC50 in assay [1] (Homo sapiens, BT-20, 48 h) was 17.3 ± 3.44 µM; in assay [2] it was > 50 µM; in assay [3] it was > 50 µM; in assay [4], > 50 µM; in assay [5], > 50 µM.
Consider `CCCOC(=O)/C=C/OC(C#N)c1ccccc1` (stereo not shown) [Compound 3E, Propyl (E)-3-(cyano(phenyl)methoxy)acrylate], for which the IC50 in assay [2], in assay [3], in assay [4] and in assay [5] was > 50 µM each time.
As for `CCCOC(=O)/C=C\OC(C#N)c1ccccc1` (stereo not shown) [Compound 3Z, Propyl (Z)-3-(cyano(phenyl)methoxy)acrylate], the concentration for half-maximal inhibition (IC50) in assay [2], in assay [3], in assay [4] and in assay [5] was > 50 µM throughout.
Regarding `CC(C)OC(=O)/C=C/OC(C#N)c1ccccc1` (stereo not shown) [Compound 4E, Isoropyl (E)-3-(cyano(phenyl)methoxy)acrylate], the IC50 in assay [2], in assay [3], in assay [4] and in assay [5] was > 50 µM throughout.
As for `CC(C)OC(=O)/C=C\OC(C#N)c1ccccc1` (stereo not shown) [Compound 4Z, Isoropyl (Z)-3-(cyano(phenyl)methoxy)acrylate], the IC50 in assay [2], in assay [3], in assay [4] and in assay [5] was > 50 µM in each case.
For `COC(=O)/C=C/OC(C#N)c1ccccc1` (stereo not shown) [Compound 5E], the IC50 in assay [1] (Homo sapiens, BT-20, 48 h) was 8.31 ± 1.26 µM; in assay [2], > 50 µM; in assay [3] it was 18.9 ± 1.2 µM; in assay [4] it was > 50 µM; in assay [5], 3.84 ± 1.56 µM.
For `COC(=O)/C=C\OC(C#N)c1ccccc1` (stereo not shown) [Compound 5Z], the IC50 is 19.9 ± 3.42 µM in assay [1] (Homo sapiens, BT-20, 48 h); > 50 µM in assay [2]; > 50 µM in assay [3]; > 50 µM in assay [4]; 29.8 ± 2.09 µM in assay [5].
For `COC(=O)/C=C/OC(C#N)c1ccc(OC)cc1` (stereo not shown) [Compound 6E], the IC50 in assay [1] (Homo sapiens, BT-20, 48 h) is 27.8 ± 5.31 µM; in assay [2] it was > 50 µM; in assay [3], > 50 µM; in assay [4] it was > 50 µM; in assay [5], 12.4 ± 1.18 µM.
For `COC(=O)/C=C\OC(C#N)c1ccc(OC)cc1` (stereo not shown) [Compound 6Z], the IC50 was 12.6 ± 1.76 µM in assay [1] (Homo sapiens, BT-20, 48 h); > 50 µM in assay [2]; > 50 µM in assay [3]; > 50 µM in assay [4]; 31.3 ± 4.42 µM in assay [5].
Take `COC(=O)/C=C/OC(C#N)c1ccc(C(F)(F)F)cc1` (stereo not shown) [Compound 7E]: the IC50 was 10 ± 2.17 µM in assay [1] (Homo sapiens, BT-20, 48 h); > 50 µM in assay [2]; 29.3 ± 1.1 µM in assay [3]; > 50 µM in assay [4]; 2.62 ± 0.53 µM in assay [5].
On to `COC(=O)/C=C\OC(C#N)c1ccc(C(F)(F)F)cc1` (stereo not shown) [Compound 7Z], for which the IC50 in assay [1] (Homo sapiens, BT-20, 48 h) is > 50 µM; in assay [2] it was > 50 µM; in assay [3], > 50 µM; in assay [4], > 50 µM; in assay [5], > 50 µM.
As to `COC(=O)/C=C/OC(C#N)c1ccc(F)cc1` (stereo not shown) [Compound 8E], the 50% inhibitory concentration (IC50) in assay [2], in assay [3], in assay [4] and in assay [5] was > 50 µM in each case.
As to `COC(=O)/C=C\OC(C#N)c1ccc(F)cc1` (stereo not shown) [Compound 8Z], the IC50 in assay [2], in assay [3], in assay [4] and in assay [5] was > 50 µM in each case.
On to `COC(=O)/C=C/OC(C#N)c1ccc(C)cc1` (stereo not shown) [Compound 9E], for which the concentration for half-maximal inhibition (IC50) is 4.98 ± 2.77 µM in assay [1] (Homo sapiens, BT-20, 48 h); > 50 µM in assay [2]; 21.4 ± 0.83 µM in assay [3]; > 50 µM in assay [4]; 8.08 ± 2.08 µM in assay [5].
In the case of `COC(=O)/C=C\OC(C#N)c1ccc(C)cc1` (stereo not shown) [Compound 9Z], the 50% inhibitory concentration (IC50) was 20.2 ± 3.78 µM in assay [1] (Homo sapiens, BT-20, 48 h); > 50 µM in assay [2]; > 50 µM in assay [3]; > 50 µM in assay [4]; > 50 µM in assay [5].
In the case of `COC(=O)/C=C/OC(C#N)c1cccs1` (stereo not shown) [Compound 10E], the IC50 in assay [2], in assay [3], in assay [4] and in assay [5] was > 50 µM each time.
As for `COC(=O)/C=C\OC(C#N)c1cccs1` (stereo not shown) [Compound 10Z], the IC50 in assay [2], in assay [3], in assay [4] and in assay [5] was > 50 µM throughout.
Regarding `COC(=O)/C=C/OC(C#N)c1cc2ccccc2c2ccccc12` (stereo not shown) [Compound 12E], the IC50 is 7 ± 1.96 µM in assay [1] (48 h); 9.89 ± 0.25 µM in assay [1] (Homo sapiens, BT-20, 48 h); 16.1 ± 1.2 µM in assay [2]; 9.89 ± 0.25 µM in assay [3]; 14.4 ± 0.86 µM in assay [4]; 7.35 ± 1.42 µM in assay [5].
With `COC(=O)/C=C\OC(C#N)c1cc2ccccc2c2ccccc12` (stereo not shown) [Compound 12Z], the half-maximal inhibitory concentration (IC50) is 11.9 ± 1.1 µM in assay [1] (Homo sapiens, BT-20, 48 h); > 50 µM in assay [2]; > 50 µM in assay [3]; > 50 µM in assay [4]; 11.9 ± 1.88 µM in assay [5].

The record behind these values is paper PMC10944868, “Synthesis, biological and computational evaluation of novel cyanomethyl vinyl ether derivatives” (Frontiers in Pharmacology, 2024).
